Data as given in US20220378790A1, “PHARMACEUTICAL PREPARATION COMPRISING AN AMIDE DERIVATIVE INHIBITING THE GROWTH OF CANCER CELL AND A PHARMACEUTICAL PRODUCT CONTAINING THE SAME” (Hanmi Pharm Co., Ltd., priority 2019, published 2022).

Assay: Stability test at 60° C. severe condition, impurity IV
Format: physicochemical
Procedure: The stability of the tablets of Examples 6 to 9 and Comparative Example 9 above was evaluated. In addition, the stability was evaluated using HM781-36B itself as Comparative Example 11.
Specifically, each of the tablets of Examples 6 to 9 and Comparative Example 9 above was packaged with Formpack® Dessiflex Blister (where to get: amcor), and the HM781-36B of Comparative Example 11 was packaged in an HDPE bottle, and then these were stored for 1, 2, and 4 weeks at a temperature of 60° C., which is a severe condition. The stability evaluation was performed for the samples stored for the above period according to the analysis conditions of Experimental Example 6.

SMILES: C=CC(=O)N1CCC(Oc2cc3c(Nc4ccc(Cl)c(Cl)c4F)ncnc3cc2OC)CC1 [Comparative Example 11]
- Amount of Impurity IV (1 week, 60° C.): 0.06%
- Amount of Impurity IV (2 weeks, 60° C.): 0.07%
- Stability (in words) (4 weeks under severe conditions, 60° C.): very stable results
- Amount of Impurity IV (4 weeks, 60° C.): 0.07%
- Amount of Impurity IV (Initial, tablets in Formpack Dessiflex Blister, HM781-36B in HDPE bottle): 0.06%
